Test results reported in paper PMC8581430, “Peptide ligands targeting FGF receptors promote recovery from dorsal root crush injury via AKT/mTOR signaling” (Theranostics, 2021).

Tests used:
[1] = system: AKT (phosphorylated) in DRG explants; test: Western blot of phosphorylated AKT in DRG explants; assay type: cell-based, rat; conditions: CH02 20 μM + BGJ398 2 μM, 4 h, n = 3
From the text: (§1) Figure 6 Phosphoproteomic profiling of the intracellular signaling pathway used by CH02 for augmenting nerve regeneration. (A) GO biological process analysis of proteins corresponding to differentially expressed phosphorylated peptides. Ordinates indicate the enriched GO terms; abscissae represent the gene ratio; size of the dots indicates the number of proteins enriched in this biological process. (B) KEGG pathway analysis of proteins corresponding to differentially expressed phosphorylated peptides. Ordinates indicate the enriched pathway term; abscissae represent the gene ratio; size of the dots indicates number of proteins enriched in this pathway. […] (D-E) Quantification of p-ERK1/2 and p-AKT expression levels. n = 3 independent experiments. Relative protein expression level was quantified after normalization to the corresponding total proteins. […] (G-H) Quantification of p-ERK1/2 and p-AKT expression levels. n = 3 independent experiments. Relative protein expression level was quantified after normalization to the corresponding total proteins. […] The axon is shown in fluorescence (NF200) images. […] For quantification of axon length, neurons were immunostained using an antibody against β-tubulin. […] (N) Quantification of TUNEL-positive neurons (M) using ImageJ software (n = 5 for each condition; ***p < 0.001 by one-way ANOVA with Dunnett's test; mean ± SEM). […]

[2] = system: ERK1/2 (phosphorylated) in DRG explants; test: Western blot of phosphorylated ERK1/2 in DRG explants; assay type: cell-based, rat; conditions: CH02 20 μM + BGJ398 2 μM, 4 h, n = 3
From the text: as §1

CCN1CCN(c2ccc(Nc3cc(N(C)C(=O)Nc4c(Cl)c(OC)cc(OC)c4Cl)ncn3)cc2)CC1 [BGJ398]
effect of inhibitor on CH02-upregulated phosphorylated AKT [1]: counteracted CH02 effect on upregulating phosphorylated AKT and ERK levels
effect of inhibitor on CH02-upregulated phosphorylated ERK [2]: counteracted CH02 effect on upregulating phosphorylated AKT and ERK levels
